Data: US20230089715A1, “MASITINIB FOR THE TREATMENT OF A MULTIPLE SCLEROSIS PATIENT SUBPOPULATION” (AB SCIENCE, priority 2020, published 2023)

Tested on: patients with progressive multiple sclerosis (PPMS or non-active SPMS)
Experiment: Study AB07002: randomized, double-blind, placebo-controlled phase 3 study, overall EDSS change from baseline
Assay type: in vivo, human
Parameters: key to LSM EDSS, MAS (overall EDSS change from baseline): LS mean EDSS change from baseline; positive value = worsening
Details: 4.5 mg/kg/day oral, 96 weeks
Protocol: An international, multicenter, randomized, double-blind, placebo-controlled phase 3 study was conducted with the objective to evaluate oral masitinib at a dose of 4.5 mg/kg/day as a treatment for progressive multiple sclerosis (progressive MS), as defined hereinabove. […] Eligible patients were treated for 96 weeks with masitinib at a dose of 4.5 mg/kg/day (mg per kilo body weight per day) or with placebo. Primary endpoint was overall EDSS change from baseline using a repeated analysis of covariance model (i.e., ANCOVA GEE model on all measurements from week 12 (W12) to week 96 (W96)). Results are expressed as least-squares means difference, illustrating the progression of EDSS score, that is to say the change over time in the EDSS score or in other words the difference between the EDSS score at baseline and the EDSS score after treatment with masitinib or with placebo (a positive value indicates a worsening of the patient). Treatment-effect is reported as between-group difference (ΔLSM, negative value indicates a beneficial effect of treatment with masitinib as compared to treatment with placebo). […] Patients suffering from a disease other than MS that would better explain their neurological clinical signs and symptoms and/or lesions observed with magnetic resonance imaging (“MRI lesions”) were excluded. Subpopulation analyses of primary endpoint data from study AB07002 assessed the impact of the clinical markers ‘time from onset’ with respect to baseline (i.e., date of treatment initiation), derived from the estimated date of first clinical MS symptom(s), or ‘time from diagnosis’ with respect to baseline (i.e., date of treatment initiation), on masitinib efficacy in patients with progressive MS (see Example 3). ‘Time from onset’ is derived from the date (year/month/day, year/month, or year) of first clinical symptom(s) with duration calculated from date of treatment initiation. The date of first symptom(s) is typically determined retrospectively from medical history, for example from medical records and patient/caregiver historical recall of MS related symptoms following a clinically definite diagnosis. Imputation of missing data can be handled using various methods, one example of which is the following approach: if the information regarding day is missing, the day is considered to be the last day of the month; if the day and month are missing, the day is considered to be the last day of June. ‘Time from diagnosis’ of progressive MS, is ideally based on a clinically definite diagnosis of progressive MS as determined by a MS specialist neurologist. In practice it is derived from the date (year/month/day, year/month, or year) of first clinically definite diagnosis of progressive MS, i.e., PPMS or non-active SPMS, with duration calculated from date of treatment initiation. At the time of MS diagnosis, a provisional disease course should be specified (relapsing-remitting, primary progressive, or secondary progressive) and whether the course is active or not (non-active) and progressive or not based on the previous year's history. The phenotype should be periodically re-evaluated based on accumulated information. Comparison of subpopulation analyses with respect to the corresponding full analysis dataset (see Table 4) is reported as relative difference in ΔEDSS (R %). A large positive R % value indicates a subpopulation that receives greater benefit from masitinib treatment, while a negative R % value indicates a diminished treatment-effect or lack of discernable treatment-effect in the subpopulation.

[1] = PPMS, T(diag) > 2 Y and T(onset) > 5 Y
[2] = PPMS, complement T(diag) ≤ 2 Y or T(onset) ≤ 5 Y
[3] = Progressive MS, T(diag) > 2 Y and T(onset) > 5 Y

**Q.** For `Cc1ccc(NC(=O)c2ccc(CN3CCN(C)CC3)cc2)cc1Nc1nc(-c2cccnc2)cs1` [masitinib, 4-(4-methylpiperazin-1-ylmethyl)-N-[4-methyl-3-(4-pyridin-3ylthiazol-2-ylamino)phenyl]benzamide], which “LSM EDSS, MAS (overall EDSS change from baseline)” value (PPMS, T(diag) > 1 Y) is on record?
**A.** −0.004

**Q.** What about the “R % (relative difference in ΔEDSS with respect to full analysis dataset)” value (PPMS, T(diag) > 1 Y) of the same molecule?
**A.** 31%

**Q.** What about the “ΔEDSS (between group difference, treatment-effect vs placebo)” value (PPMS, T(diag) > 1 Y) of the same molecule?
**A.** −0.174

**Q.** What about the “LSM EDSS, MAS (overall EDSS change from baseline)” value [1] of the same molecule?
**A.** −0.076

**Q.** What about the “ΔEDSS (between group difference, treatment-effect vs placebo)” value [1] of the same molecule?
**A.** −0.283

**Q.** What about the “R % (relative difference in ΔEDSS with respect to full analysis dataset)” value (PPMS, T(diag) > 2 Y and T(onset) > 5 Y, 4.5 mg/kg/day) of the same molecule?
**A.** 113%

**Q.** And the “LSM EDSS, MAS (overall EDSS change from baseline)” value (PPMS, T(diag) > 2 Y)?
**A.** −0.070

**Q.** What about the “ΔEDSS (between group difference, treatment-effect vs placebo)” value (PPMS, T(diag) > 2 Y) of the same molecule?
**A.** −0.246

**Q.** And the “R % (relative difference in ΔEDSS with respect to full analysis dataset)” value (PPMS, T(diag) > 2 Y, 4.5 mg/kg/day)?
**A.** 85%

**Q.** What about the “LSM EDSS, MAS (overall EDSS change from baseline)” value (PPMS, T(diag) > 3 Y) of the same molecule?
**A.** −0.099

**Q.** What about the “ΔEDSS (between group difference, treatment-effect vs placebo)” value (PPMS, T(diag) > 3 Y) of the same molecule?
**A.** −0.211

**Q.** What about the “R % (relative difference in ΔEDSS with respect to full analysis dataset)” value (PPMS, T(diag) > 3 Y, 4.5 mg/kg/day) of the same molecule?
**A.** 59%

**Q.** What about the “LSM EDSS, MAS (overall EDSS change from baseline)” value (PPMS, T(diag) > 4 Y) of the same molecule?
**A.** 0.097

**Q.** What about the “R % (relative difference in ΔEDSS with respect to full analysis dataset)” value (PPMS, T(diag) > 4 Y) of the same molecule?
**A.** 25%

**Q.** What about the “ΔEDSS (between group difference, treatment-effect vs placebo)” value (PPMS, T(diag) > 4 Y) of the same molecule?
**A.** −0.166

**Q.** What about the “LSM EDSS, MAS (overall EDSS change from baseline)” value (PPMS, T(diag) ≤ 1 Y) of the same molecule?
**A.** −0.097

**Q.** What about the “ΔEDSS (between group difference, treatment-effect vs placebo)” value (PPMS, T(diag) ≤ 1 Y) of the same molecule?
**A.** 0.137

**Q.** And the “LSM EDSS, MAS (overall EDSS change from baseline)” value (PPMS, T(diag) ≤ 2 Y)?
**A.** 0.190

**Q.** What about the “LSM EDSS, MAS (overall EDSS change from baseline)” value (PPMS, T(diag) ≤ 3 Y) of the same molecule?
**A.** 0.070

**Q.** What about the “ΔEDSS (between group difference, treatment-effect vs placebo)” value (PPMS, T(diag) ≤ 3 Y) of the same molecule?
**A.** 0.009

**Q.** And the “LSM EDSS, MAS (overall EDSS change from baseline)” value (PPMS, T(diag) ≤ 4 Y)?
**A.** 0.099

**Q.** And the “ΔEDSS (between group difference, treatment-effect vs placebo)” value (PPMS, T(diag) ≤ 4 Y)?
**A.** −0.089

**Q.** What about the “LSM EDSS, MAS (overall EDSS change from baseline)” value (PPMS, T(onset) > 1 Y) of the same molecule?
**A.** 0.040

**Q.** What about the “R % (relative difference in ΔEDSS with respect to full analysis dataset)” value (PPMS, T(onset) > 1 Y) of the same molecule?
**A.** −6%

**Q.** And the “ΔEDSS (between group difference, treatment-effect vs placebo)” value (PPMS, T(onset) > 1 Y)?
**A.** −0.125

**Q.** What about the “LSM EDSS, MAS (overall EDSS change from baseline)” value (PPMS, T(onset) > 2 Y) of the same molecule?
**A.** 0.026

**Q.** What about the “R % (relative difference in ΔEDSS with respect to full analysis dataset)” value (PPMS, T(onset) > 2 Y) of the same molecule?
**A.** 5%

**Q.** What about the “ΔEDSS (between group difference, treatment-effect vs placebo)” value (PPMS, T(onset) > 2 Y) of the same molecule?
**A.** −0.139

**Q.** What about the “LSM EDSS, MAS (overall EDSS change from baseline)” value (PPMS, T(onset) > 3 Y) of the same molecule?
**A.** 0.021

**Q.** And the “R % (relative difference in ΔEDSS with respect to full analysis dataset)” value (PPMS, T(onset) > 3 Y)?
**A.** 31%

**Q.** What about the “ΔEDSS (between group difference, treatment-effect vs placebo)” value (PPMS, T(onset) > 3 Y) of the same molecule?
**A.** −0.174

**Q.** What about the “LSM EDSS, MAS (overall EDSS change from baseline)” value (PPMS, T(onset) > 4 Y) of the same molecule?
**A.** 0.028

**Q.** And the “R % (relative difference in ΔEDSS with respect to full analysis dataset)” value (PPMS, T(onset) > 4 Y)?
**A.** 22%

**Q.** And the “ΔEDSS (between group difference, treatment-effect vs placebo)” value (PPMS, T(onset) > 4 Y)?
**A.** −0.162

**Q.** What about the “LSM EDSS, MAS (overall EDSS change from baseline)” value (PPMS, T(onset) > 5 Y) of the same molecule?
**A.** 0.029

**Q.** What about the “ΔEDSS (between group difference, treatment-effect vs placebo)” value (PPMS, T(onset) > 5 Y) of the same molecule?
**A.** −0.214

**Q.** What about the “R % (relative difference in ΔEDSS with respect to full analysis dataset)” value (PPMS, T(onset) > 5 Y, 4.5 mg/kg/day) of the same molecule?
**A.** 61%

**Q.** And the “LSM EDSS, MAS (overall EDSS change from baseline)” value (PPMS, T(onset) ≤ 3 Y)?
**A.** 0.111

**Q.** And the “ΔEDSS (between group difference, treatment-effect vs placebo)” value (PPMS, T(onset) ≤ 3 Y)?
**A.** 0.349

**Q.** What about the “LSM EDSS, MAS (overall EDSS change from baseline)” value (PPMS, T(onset) ≤ 4 Y) of the same molecule?
**A.** −0.082

**Q.** What about the “ΔEDSS (between group difference, treatment-effect vs placebo)” value (PPMS, T(onset) ≤ 4 Y) of the same molecule?
**A.** 0.051

**Q.** And the “LSM EDSS, MAS (overall EDSS change from baseline)” value (PPMS, T(onset) ≤ 5 Y)?
**A.** 0.314

**Q.** What about the “LSM EDSS, MAS (overall EDSS change from baseline)” value [2] of the same molecule?
**A.** 0.180

**Q.** And the “ΔEDSS (between group difference, treatment-effect vs placebo)” value [2]?
**A.** 0.118

**Q.** What about the “LSM EDSS, MAS (overall EDSS change from baseline)” value (PPMS, full analysis dataset) of the same molecule?
**A.** 0.030

**Q.** What about the “ΔEDSS (between group difference, treatment-effect vs placebo)” value (PPMS, full analysis dataset, 4.5 mg/kg/day) of the same molecule?
**A.** −0.133

**Q.** And the “ΔEDSS (between group difference, treatment-effect vs placebo)” value (PPMS, full analysis dataset, listed as Masitinib, 4.5 mg/kg/day)?
**A.** non-significant trend

**Q.** What about the “LSM EDSS, MAS (overall EDSS change from baseline)” value (Progressive MS, T(diag) > 1 Y) of the same molecule?
**A.** −0.012

**Q.** And the “R % (relative difference in ΔEDSS with respect to full analysis dataset)” value (Progressive MS, T(diag) > 1 Y)?
**A.** 10%

**Q.** What about the “ΔEDSS (between group difference, treatment-effect vs placebo)” value (Progressive MS, T(diag) > 1 Y) of the same molecule?
**A.** −0.109

**Q.** And the “LSM EDSS, MAS (overall EDSS change from baseline)” value [3]?
**A.** −0.057

**Q.** And the “ΔEDSS (between group difference, treatment-effect vs placebo)” value [3]?
**A.** −0.162

**Q.** What about the “R % (relative difference in ΔEDSS with respect to full analysis dataset)” value (Progressive MS, T(diag) > 2 Y and T(onset) > 5 Y, 4.5 mg/kg/day) of the same molecule?
**A.** 64%

**Q.** What about the “LSM EDSS, MAS (overall EDSS change from baseline)” value (Progressive MS, T(diag) > 2 Y) of the same molecule?
**A.** −0.029

**Q.** What about the “ΔEDSS (between group difference, treatment-effect vs placebo)” value (Progressive MS, T(diag) > 2 Y) of the same molecule?
**A.** −0.133

**Q.** And the “R % (relative difference in ΔEDSS with respect to full analysis dataset)” value (Progressive MS, T(diag) > 2 Y, 4.5 mg/kg/day)?
**A.** 34%

**Q.** What about the “LSM EDSS, MAS (overall EDSS change from baseline)” value (Progressive MS, T(diag) > 3 Y) of the same molecule?
**A.** −0.068

**Q.** And the “R % (relative difference in ΔEDSS with respect to full analysis dataset)” value (Progressive MS, T(diag) > 3 Y)?
**A.** 39%

**Q.** What about the “ΔEDSS (between group difference, treatment-effect vs placebo)” value (Progressive MS, T(diag) > 3 Y) of the same molecule?
**A.** −0.138

**Q.** And the “LSM EDSS, MAS (overall EDSS change from baseline)” value (Progressive MS, T(diag) > 4 Y)?
**A.** −0.053

**Q.** What about the “R % (relative difference in ΔEDSS with respect to full analysis dataset)” value (Progressive MS, T(diag) > 4 Y) of the same molecule?
**A.** 48%

**Q.** And the “ΔEDSS (between group difference, treatment-effect vs placebo)” value (Progressive MS, T(diag) > 4 Y)?
**A.** −0.147

**Q.** What about the “LSM EDSS, MAS (overall EDSS change from baseline)” value (Progressive MS, T(diag) ≤ 1 Y) of the same molecule?
**A.** −0.099
